Reference: the supplement of paper PMC10307832

Compound: Cc1ccc(C(=O)Nc2ccc(CN3CCN(C)CC3)c(C(F)(F)F)c2)cc1C#Cc1cnc2cccnn12 [Ponatinib] + NC(=O)Nc1cc(-c2cccc(F)c2)sc1C(=O)N[C@H]1CCCNC1 [AZD7762] (partner 0.2 µM)
Assay: relative viability (nuclei count vs DMSO), 5 days (fraction); higher = more cells survive
In short: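 For relative viability, nuclei counts in treated wells were divided by those in vehicle wells. Lung cancer cell lines had been pin-tool dosed in 1536-well plates the day after seeding and cultured for 5 days, then fixed and stained in one step (final 0.05% Triton X-100, 1% formaldehyde, 1 ug/ml Hoechst) and imaged at 4×. Doses were one drug alone or a fixed anchor-drug dose plus five library-drug doses (not always all listed) in √10 steps, and values are duplicate-plate medians.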

| Cell Line | relative viability (first compound 0.002 µM) | relative viability (first compound 0.006325 µM) | relative viability (first compound 0.06325 µM) | relative viability (first compound 0.2 µM) |
| --- | --- | --- | --- | --- |
| 201T | 0.557 | 0.546 | 0.38 | 0.371 |
| A-427 | 0.713 | 0.73 | 0.593 | 0.582 |
| ABC-1 | 0.828 | 0.878 | 0.755 | 0.663 |
| BEN | 0.494 | 0.625 | 0.589 | 0.774 |
| CAL-12T | 0.548 | 0.554 | 0.611 | 0.5 |
| ChaGo-K-1 | 0.763 | 0.857 | 0.847 | 0.819 |
| EKVX | 0.7 | 0.766 | 0.673 | 0.606 |
| EMC-BAC-2 | 0.996 | 1.05 | 1.13 | 0.989 |
| EPLC-272H | 0.242 | 0.175 | 0.204 | 0.234 |
| H3255 | 0.817 | 0.858 | 1.05 | 0.95 |
| HARA | 0.382 | 0.351 | 0.31 | 0.356 |
| HCC-15 | 1.18 | 1.19 | 1.32 | 1.31 |
| HCC-44 | 0.992 | 1.02 | 1.02 | 0.997 |
| HCC-78 | 0.52 | 0.537 | 0.669 | 0.647 |
| HCC-366 | 0.247 | 0.271 | 0.146 | 0.119 |
| HCC-827 | 0.185 | 0.216 | 0.182 | 0.253 |
| HOP-62 | 0.643 | 0.417 | 0.831 | 0.439 |
| LC-2-ad | 0.833 | 0.858 | 0.977 | 0.872 |
| LCLC-97TM1 | 0.141 | 0.264 | 0.289 | 0.28 |
| LCLC-103H | 0.699 | 0.809 | 0.734 | 0.753 |
| LK-2 | 0.405 | 0.431 | 0.146 | 0.231 |

| Cell Line | relative viability (first compound 0.002 µM) | relative viability (first compound 0.006325 µM) | relative viability (first compound 0.06325 µM) | relative viability (first compound 0.2 µM) |
| --- | --- | --- | --- | --- |
| LOU-NH91 | 0.744 | 0.779 | 0.801 | 0.682 |
| LU99A | 0.308 | 0.421 | 0.399 | 0.48 |
| LXF-289 | 1.03 | 1.13 | 1.19 | 1.1 |
| NCI-H23 | 0.266 | 0.244 | 0.237 | 0.14 |
| NCI-H322M | 0.566 | 0.483 | 0.543 | 0.448 |
| NCI-H358 | 0.45 | 0.567 | 0.509 | 0.46 |
| NCI-H441 | 1.18 | 1.19 | 1.35 | 1.14 |
| NCI-H460 | 0.478 | 0.552 | 0.564 | 0.576 |
| NCI-H522 | 0.664 | 0.784 | 0.695 | 0.819 |
| NCI-H596 | 1.08 | 1.04 | 0.912 | 0.632 |
| NCI-H647 | 0.294 | 0.381 | 0.482 | 0.335 |
| NCI-H650 | 0.695 | 0.92 | 0.981 | 0.572 |
| NCI-H727 | 0.508 | 0.575 | 0.567 | 0.576 |
| NCI-H838 | 0.899 | 0.935 | 0.95 | 0.774 |
| NCI-H1355 | 0.696 | 0.742 | 0.829 | 0.717 |
| NCI-H1395 | 0.387 | 0.41 | 0.371 | 0.362 |
| NCI-H1437 | 1.02 | 1.07 | 1.17 | 1.03 |
| NCI-H1648 | 0.627 | 0.64 | 0.618 | 0.567 |
| NCI-H1651 | 0.336 | 0.465 | 0.458 | 0.509 |
| NCI-H1666 | 0.823 | 0.863 | 0.889 | 0.902 |
| NCI-H1703 | 0.118 | 0.143 | 0.118 | 0.143 |

| Cell Line | relative viability (first compound 0.002 µM) | relative viability (first compound 0.006325 µM) | relative viability (first compound 0.06325 µM) | relative viability (first compound 0.2 µM) |
| --- | --- | --- | --- | --- |
| NCI-H1734 | 0.514 | 0.516 | 0.418 | 0.461 |
| NCI-H1755 | 0.409 | 0.379 | 0.381 | 0.362 |
| NCI-H1792 | 0.708 | 0.478 | 0.55 | 0.407 |
| NCI-H1793 | 0.406 | 0.466 | 0.282 | 0.178 |
| NCI-H1915 | 0.553 | 0.697 | 0.591 | 0.651 |
| NCI-H1944 | 0.454 | 0.489 | 0.543 | 0.664 |
| NCI-H1975 | 0.599 | 0.706 | 0.726 | 0.615 |
| NCI-H1993 | 0.65 | 0.86 | 0.773 | 0.689 |
| NCI-H2085 | 0.962 | 0.944 | 0.909 | 0.814 |
| NCI-H2087 | 1.05 | 1.07 | 1.43 | 1.19 |
| NCI-H2126 | 0.978 | 0.965 | 1.09 | 0.998 |
| NCI-H2170 | 0.799 | 0.927 | 0.789 | 0.833 |
| NCI-H2342 | 0.436 | 0.457 | 0.467 | 0.456 |
| NCI-H2347 | 0.747 | 0.75 | 0.626 | 0.662 |
| NCI-H2405 | 0.622 | 0.73 | 0.705 | 0.542 |
| NCI-H3122 | 0.846 | 0.903 | 1.05 | 0.924 |
| PC-3 [JPC-3] |  | 0.901 | 1 | 0.873 |
| PC-14 | 0.218 | 0.305 | 0.396 | 0.458 |
| RERF-LC-KJ | 0.838 | 0.951 | 1.13 | 0.961 |
| SW 900 | 0.569 | 0.46 | 0.606 | 0.537 |
